Our source for the GI50 and TGI values is PubChem BioAssay (NCI).

Test systems include A498 renal; IGROV1 ovarian; MDA-MB-435; SF-295 CNS; KM12 colon; HL-60(TB) leukemia; HOP-62 NSCLC; EKVX NSCLC; SW-620 colon; A549 NSCLC.
Holding throughout (assay): growth of human tumour cells (NCI), 48 h

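1) Cells in 96-well plates. 2) Compound, 48 h, 5 concentrations. 3) Linear interpolation between surrounding doses. 4) Unreached endpoint = highest concentration. The concentration for 50% growth inhibition is given as GI50. The concentration for full growth arrest is given as TGI.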

For `CCN1CCC(CC(=O)Nc2n[nH]c3nc(-c4cccs4)c(Br)cc23)CC1`, the GI50 in the assay on A498 renal was 7.87 µM; with IGROV1 ovarian it was 12.8 µM; in the assay on MDA-MB-435 it was 5.35 µM; with SF-295 CNS, 10.7 µM; in the assay on KM12 colon, 5.81 µM; in the assay on HL-60(TB) leukemia, 7.31 µM. Moreover, the GI50 in the assay on HOP-62 NSCLC was 10.6 µM; with EKVX NSCLC, over 25 µM; with SW-620 colon it was 11.4 µM; in the assay on A549 NSCLC, 8.82 µM. Moreover, the TGI in the assay on A498 renal was over 25 µM; with IGROV1 ovarian, over 25 µM; in the assay with MDA-MB-435, 14.5 µM; in the assay on SF-295 CNS, over 25 µM; in the assay with KM12 colon, 13.8 µM; in the assay with HL-60(TB) leukemia it was 14.8 µM. Moreover, the TGI in the assay on HOP-62 NSCLC, with EKVX NSCLC, in the assay on SW-620 colon and with A549 NSCLC was over 25 µM each time.
On to `O=C(/C=C\c1ccc2ccccc2n1)c1cc(Cl)ccc1O`, for which the GI50 with A498 renal was 28.9 µM; in the assay with IGROV1 ovarian, 5.21 µM; with MDA-MB-435, 3.66 µM; in the assay on SF-295 CNS it was 10.3 µM; with KM12 colon, 8.71 µM; with HL-60(TB) leukemia, 3.32 µM. In addition, the GI50 in the assay with HOP-62 NSCLC is 6.54 µM; in the assay on EKVX NSCLC it was 13.7 µM; in the assay on SW-620 colon, 1.84 µM; in the assay with A549 NSCLC, 57.9 µM. The TGI is over 100 µM with A498 renal; 22.6 µM in the assay with IGROV1 ovarian; 21.7 µM in the assay with MDA-MB-435; 44.2 µM with SF-295 CNS; 24.5 µM in the assay with KM12 colon; 11.3 µM in the assay with HL-60(TB) leukemia. Also, the TGI in the assay on HOP-62 NSCLC was 20.7 µM; with EKVX NSCLC it was 87.5 µM; in the assay on SW-620 colon, 3.84 µM; in the assay with A549 NSCLC it was over 100 µM.
As for `COc1cc2c(cc1OC)-c1c(c3ccc([N+](=O)[O-])cc3c(=O)n1CCCN)C2=O`, the GI50 is 6.27 µM in the assay on A498 renal; 0.306 µM in the assay on IGROV1 ovarian; 7.23 µM with MDA-MB-435; 0.0566 µM in the assay on SF-295 CNS; 2.1 µM in the assay on KM12 colon; 1.28 µM in the assay with HL-60(TB) leukemia. For the same compound, the GI50 in the assay on HOP-62 NSCLC is 1.28 µM; in the assay on EKVX NSCLC it was 7.75 µM; with SW-620 colon, 0.491 µM; in the assay on A549 NSCLC, 0.395 µM. In addition, the TGI in the assay with A498 renal worked out at 13.2 µM; in the assay with IGROV1 ovarian, 8.29 µM; in the assay with MDA-MB-435 it was 15.4 µM; with SF-295 CNS it was 10.5 µM; with KM12 colon, 4.92 µM; with HL-60(TB) leukemia it was 3.38 µM. The TGI is 8.24 µM in the assay on HOP-62 NSCLC, 18.3 µM with EKVX NSCLC, 5.92 µM with SW-620 colon and 1.68 µM in the assay on A549 NSCLC.
As for `CC1(C)Cc2c(Br)c(Br)c(Br)c(OCC(O)CN3CCOCC3)c2O1` (centres undefined), the GI50 is 12.6 µM in the assay with A498 renal; 14.1 µM in the assay on IGROV1 ovarian; 15.5 µM with MDA-MB-435; 5.17 µM in the assay on SF-295 CNS; 13.4 µM in the assay on KM12 colon; 3.72 µM in the assay on HL-60(TB) leukemia. The GI50 was 12.2 µM in the assay on HOP-62 NSCLC, 7.72 µM in the assay with EKVX NSCLC, 15.6 µM with SW-620 colon and 12.9 µM in the assay with A549 NSCLC. The TGI was 26.4 µM in the assay with A498 renal; 28.4 µM in the assay with IGROV1 ovarian; 31.9 µM with MDA-MB-435; 20.3 µM in the assay on SF-295 CNS; 28.9 µM with KM12 colon; 17.9 µM in the assay on HL-60(TB) leukemia. In addition, the TGI was determined as 27.3 µM in the assay with HOP-62 NSCLC, 20.5 µM in the assay with EKVX NSCLC, 29.8 µM with SW-620 colon and 28.4 µM in the assay on A549 NSCLC.
Take `Cc1ccc(C[P+](c2ccccc2)(c2ccccc2)c2ccccc2)cc1`: the GI50 is 1.84 µM in the assay on A498 renal; 2.33 µM with IGROV1 ovarian; 0.515 µM in the assay on MDA-MB-435; 0.99 µM in the assay with SF-295 CNS; 0.438 µM in the assay on KM12 colon; 0.455 µM in the assay with HL-60(TB) leukemia. The GI50 in the assay on HOP-62 NSCLC was 1.55 µM; in the assay with EKVX NSCLC it was 0.369 µM; in the assay with SW-620 colon it was 1.36 µM; with A549 NSCLC, 0.684 µM. Moreover, the TGI with A498 renal is 7.4 µM; with IGROV1 ovarian, over 100 µM; in the assay on MDA-MB-435, 5.4 µM; with SF-295 CNS, 8.11 µM; in the assay with KM12 colon, 4.5 µM; in the assay on HL-60(TB) leukemia, 3.36 µM. The values for the TGI in the assay with HOP-62 NSCLC, in the assay with EKVX NSCLC and with SW-620 colon were 6.28 µM, over 58.6 µM and 12.2 µM, respectively.
`CN(C)S(=O)(=O)c1ccc(Nc2ccc(O)c3c2C(=O)c2c([N+](=O)[O-])ccc(O)c2C3=O)cc1`: the TGI with A498 renal, with IGROV1 ovarian, in the assay on MDA-MB-435, in the assay on SF-295 CNS, in the assay on KM12 colon and with HL-60(TB) leukemia was over 100 µM in each case. Moreover, the TGI in the assay on HOP-62 NSCLC, with EKVX NSCLC, in the assay on SW-620 colon and with A549 NSCLC was over 100 µM throughout.
Consider `COc1ccc2[nH]cc(-c3nc(-c4c[nH]c5ccncc45)cs3)c2c1`, for which the GI50 with A498 renal was 4.91 µM; in the assay with IGROV1 ovarian it was 1.93 µM; with MDA-MB-435 it was 1.68 µM; in the assay on SF-295 CNS, 1.7 µM; in the assay with KM12 colon, 1.76 µM; in the assay with HL-60(TB) leukemia, 1.51 µM. Moreover, the GI50 with HOP-62 NSCLC is 2.08 µM; with EKVX NSCLC, 1.99 µM; with SW-620 colon, 1.93 µM; in the assay with A549 NSCLC it was 2.35 µM. The TGI in the assay on A498 renal came out at 16.1 µM; in the assay with IGROV1 ovarian, 3.9 µM; in the assay with MDA-MB-435, 3.13 µM; with SF-295 CNS it was 3.19 µM; in the assay with KM12 colon, 3.75 µM; with HL-60(TB) leukemia, 3.47 µM. The TGI in the assay on HOP-62 NSCLC was 4.77 µM; in the assay on EKVX NSCLC it was 4.88 µM; in the assay on SW-620 colon it was 3.84 µM; with A549 NSCLC it was 9.5 µM.
Turning to `COc1cc2ncn(-c3cc(OCc4ccccc4S(C)(=O)=O)c(C#N)s3)c2cc1OC`, the GI50 with A498 renal, in the assay on IGROV1 ovarian, in the assay on MDA-MB-435, with SF-295 CNS, with KM12 colon and in the assay on HL-60(TB) leukemia was over 25 µM each time. Further, the GI50 in the assay on HOP-62 NSCLC was over 10.8 µM; in the assay on EKVX NSCLC, over 25 µM; in the assay with SW-620 colon, over 25 µM; in the assay with A549 NSCLC, over 25 µM. The TGI in the assay with A498 renal, in the assay on IGROV1 ovarian, in the assay on MDA-MB-435, in the assay with SF-295 CNS, in the assay on KM12 colon and in the assay with HL-60(TB) leukemia was over 25 µM each time. For the same compound, the TGI with HOP-62 NSCLC is over 20.8 µM; in the assay with EKVX NSCLC, over 25 µM; in the assay on SW-620 colon, over 25 µM; in the assay with A549 NSCLC it was over 25 µM.
